Square brackets hold non-standard residues; d marks the D form. Peptide text beside a SMILES is read from it. ξ: configuration not given here. Nva(4-oxo) = CC(=O)C[C@H](N)C(=O)O; Hyp = O=C(O)[C@@H]1C[C@@H](O)CN1; Ile(3ξ) = CCC(C)[C@H](N)C(=O)O; Thr(3ξ) = CC(O)[C@H](N)C(=O)O; Sar = CNCC(=O)O
Columns and labels:
[1] = Stability in aqueous solution under long-term storage conditions (related substances); assay type: physicochemical; conditions: 25° C., 75% RH
Protocol: In order to confirm the stability of each test substance in an aqueous solution, […] of each sample was dissolved in 1 ml of water to a concentration of 1 mg/ml, which was then charged to a glass vial, plugged with a rubber cap, sealed with an aluminum cap, and stored under long-term storage conditions (25° C., 75% RH). The stability of the test substance was evaluated by measuring the amount of related substances at the time of one week, two weeks, four weeks, eight weeks, and twelve weeks under the long-term storage conditions.

[2] = tested on: cornea of rats with dry eye syndrome (ELGE); assay: Corneal permeability of fluorescent dye (corneal damage) in ELGE rats with dry eye syndrome; assay type: in vivo, rat; conditions: Table 6, study of YDE-001 to YDE-028, 3 mg/ml, 5 μl/eye twice daily, day 14
Text: (§1) In order to evaluate the eye protection effect on dry eye syndrome by YDE-001 to YDE-028 prepared in Example 1, a total of 320 Sprague-Dawley-type male rats (OrientBio, Seungnam, Korea) were adapted for 7 days. Thereafter, dry eye syndrome was induced in 264 test rats through extraorbital lacrimal gland excision (hereinafter, ELGE). 8 test rats without the eye abnormality were subjected to a sham operation as a control group.
(§2) The rat was systemically anesthetized by inhaling a mixed gas of 2% to 3% of isoflurane (Hana Pharm. Co., Hwasung, Korea), 70% of N2O, and 28.6% of O2 using a rodent anesthesia machine (Surgivet, Waukesha, Wis., USA) and a ventilator (Model 687, Harvard Apparatus, Cambridge, UK). Thereafter, the extraorbital lacrimal gland located in the subdermal area above the masseter muscle and […] was excised through a transverse incision in a size of 10 mm on the anterior part of the left ear tragus. The skin was sutured by a general method. […] After 6 days from the ELGE operation, it was checked through the Schirmer test by measuring the amount of tear secretion whether dry eye syndrome had been induced. Meanwhile, each rat of the control group with the sham operation was checked for the presence and location of the extraorbital lacrimal gland through a skin incision, and the skin was then sutured without the excision thereof (FIG. 4).
(§3) In addition, in order to evaluate the eye protection effect on dry eye syndrome by YDE-029 to YDE-043 prepared in Example 1, a total of 200 Sprague-Dawley-type male rats (OrientBio, Seungnam, Korea) were adapted for 7 days. Dry eye syndrome was induced in 165 test rats through the ELGE. 8 test rats without the eye abnormality were subjected to the sham operation as a control group. The ELGE was carried out as described above.
(§4) For YDE-001 to YDE-028, YY-102 and the 28 YDE-series were each dissolved in physiological saline at a concentration of 3 mg/ml and administered at a dose of 5 μl/eye at 9:30 am and 3:30 pm daily for 14 days after 7 days from the ELGE operation for a total of 28 times. The DS solution was dissolved in physiological saline at a concentration of 30 mg/ml and administered at a dose of […] twice a day for 14 days after 7 days from the ELGE operation for a total of 28 times. For the sham control and the ELGE control groups, the same stimulation as the administration was applied. In order to prevent excessive eye dryness, the same volume of physiological saline was applied in the same manner in place of the test substances.
as §4, with “Further, for YDE-029 to YDE-043,” for “For YDE-001 to YDE-028,”, “YDE-029 to YDE-043, YY-102 and” for “YDE-001 to YDE-028, YY-102 and”, “and the 15 YDE-series were” for “and the 28 YDE-series were”, “the test substances (FIG. 7).” for “the test substances.”
After YDE-001 to YDE-028 were each administered to the eyes […], the changes in the corneal permeability were checked.
In order to measure the corneal permeability, Zolethyl 50™ (Virbac Lab., Carros, France), an animal anesthetic, was intraperitoneally injected at a dose of 25 mg/kg. Thereafter, saline containing a 1% (v/v) fluorescent solution (fluorescein sodium salt, Tokyo Kasei Kogyo Co., Tokyo, Japan) was applied to the eyes at a dose of 5 μl/eye. The eyes thus treated were closed and fixed with a tape. After 1 hour, the remaining fluorescent solution was removed using a cotton swab (FIG. 12). […]

[3] = tested on: rats with dry eye syndrome (extraorbital lacrimal gland excision, ELGE); assay: Amount of tear secretion (Schirmer test, cobalt chloride paper) in ELGE rats with dry eye syndrome; assay type: in vivo, rat; conditions: for Tear Volumes, Day 7 / Tear Volumes, Day 14: Table 4, study of YDE-001 to YDE-028, ELGE rats, 3 mg/ml, 5 μl/eye twice daily; for Tear Volumes, Day 7: day 7 of administration; for Tear Volumes, Day 14: day 14 of administration; for Change in amount of tear secretion as compared with the ELGE control group: study of YDE-001 to YDE-028, 3% solution as printed, after administration for 14 days
Text: as §1, §2, §3, §4
as §4, with “Further, for YDE-029 to YDE-043,” for “For YDE-001 to YDE-028,”, “YDE-029 to YDE-043, YY-102 and” for “YDE-001 to YDE-028, YY-102 and”, “and the 15 YDE-series were” for “and the 28 YDE-series were”, “the test substances (FIG. 7).” for “the test substances.”
After 6 days from the ELGE surgery, the changes in the amount of tear secretion were measured at day 7 and day 14 after the administration of YDE-001 to YDE-043. The amount of tear secretion was measured by the […] travel distance of tears absorbed by cobalt chloride paper in a size of 1×15 mm (Toyo Roshi Kaisha, Japan).
The cobalt chloride paper was placed in the lateral canthus of a rat for 60 seconds to absorb tears (FIG. 9). The length of the area absorbed from the corner of the cobalt chloride paper was measured with an electronic digital caliper (Mytutoyo, Tokyo, Japan) (FIG. 8).

Amount of related substances (after 12 weeks) [1] [%] | SMILES | Permeability of fluorescent dye [2] [%] | Tear Volumes, Day 7 [3] [mm^3] | Tear Volumes, Day 14 [3] [mm^3] | Change in amount of tear secretion as compared with the ELGE control group [3]
13.05 | CC(C)C[C@H](NC(=O)[C@@H](NC(=O)[C@H](CC(=O)O)NC(=O)[C@H](CCC(N)=O)NC(=O)CNC(=O)[C@@H]1C[C@@H](O)CN1)C(C)C)C(=O)N[C@@H](C)C(=O)NCC(=O)N1CCC[C@H]1C(=O)N[C@@H](CCCCN)C(=O)O [YDE-015] (H-[Hyp]GQDVLAGPK-OH) | 15.95 ± 6.48 | 4.03 ± 2.19 | 6.65 ± 2.13 | 
11.88 | CC(C)C[C@H](NC(=O)[C@H](CC(C)C)NC(=O)[C@H](CC(=O)O)NC(=O)[C@H](CCC(N)=O)NC(=O)CNC(=O)[C@@H]1C[C@@H](O)CN1)C(=O)N[C@@H](C)C(=O)NCC(=O)N1CCC[C@H]1C(=O)N[C@@H](CCCCN)C(=O)O [YDE-017] (H-[Hyp]GQDLLAGPK-OH) | 39.76 ± 7.42 | 4.00 ± 1.22 | 4.89 ± 1.50 | did not show any significant changes
25.39 | CC(C)C[C@H](NC(=O)[C@H](C)NC(=O)[C@H](CC(=O)O)NC(=O)[C@H](CCC(N)=O)NC(=O)CNC(=O)[C@@H]1C[C@@H](O)CN1)C(=O)N[C@@H](C)C(=O)NCC(=O)N1CCC[C@H]1C(=O)N[C@@H](CCCCN)C(=O)O [YDE-018] (H-[Hyp]GQDALAGPK-OH) | 38.19 ± 10.96 | 3.75 ± 1.54 | 4.99 ± 1.60 | 
30.66 | CC(C)C[C@H](NC(=O)[C@H](CO)NC(=O)[C@H](CC(=O)O)NC(=O)[C@H](CCC(N)=O)NC(=O)CNC(=O)[C@@H]1C[C@@H](O)CN1)C(=O)N[C@@H](C)C(=O)NCC(=O)N1CCC[C@H]1C(=O)N[C@@H](CCCCN)C(=O)O [YDE-023] (H-[Hyp]GQDSLAGPK-OH) | 26.51 ± 8.18 | 5.32 ± 2.30 | 5.78 ± 2.23 | 
20.59 | CC(C)C[C@H](NC(=O)[C@@H](NC(=O)[C@H](CC(=O)O)NC(=O)[C@H](CCC(N)=O)NC(=O)CNC(=O)[C@@H]1C[C@@H](O)CN1)C(C)O)C(=O)N[C@@H](C)C(=O)NCC(=O)N1CCC[C@H]1C(=O)N[C@@H](CCCCN)C(=O)O (stereo partly drawn) [YDE-024] (H-[Hyp]GQD[Thr(3ξ)]LAGPK-OH) | 30.63 ± 10.41 | 3.85 ± 1.30 | 5.72 ± 1.36 | 

Second part, the compound before the results:

SMILES | Amount of related substances (after 12 weeks) [1] [%] | Permeability of fluorescent dye [2] [%] | Tear Volumes, Day 7 [3] [mm^3] | Tear Volumes, Day 14 [3] [mm^3] | Change in amount of tear secretion as compared with the ELGE control group [3]
CC(C)C[C@H](NC(=O)CNC(=O)[C@H](Cc1c[nH]c2ccccc12)NC(=O)[C@H](CCC(N)=O)NC(=O)CNC(=O)[C@@H]1C[C@@H](O)CN1)C(=O)N[C@@H](C)C(=O)NCC(=O)N1CCC[C@H]1C(=O)N[C@@H](CCCCN)C(=O)O [YDE-014] (H-[Hyp]GQWGLAGPK-OH) | 6.72 | 31.15 ± 10.87 | 3.81 ± 1.21 | 5.62 ± 1.85 | 
CCC(C)[C@H](NC(=O)[C@H](CC(=O)O)NC(=O)[C@H](CCC(N)=O)NC(=O)CNC(=O)[C@@H]1C[C@@H](O)CN1)C(=O)N[C@@H](CC(C)C)C(=O)N[C@@H](C)C(=O)NCC(=O)N1CCC[C@H]1C(=O)N[C@@H](CCCCN)C(=O)O (stereo partly drawn) [YDE-016] (H-[Hyp]GQD[Ile(3ξ)]LAGPK-OH) | 11.33 | 24.57 ± 10.34 | 4.59 ± 1.13 | 5.98 ± 2.27 | 
CC(C)C[C@H](NC(=O)[C@H](Cc1ccccc1)NC(=O)[C@H](CC(=O)O)NC(=O)[C@H](CCC(N)=O)NC(=O)CNC(=O)[C@@H]1C[C@@H](O)CN1)C(=O)N[C@@H](C)C(=O)NCC(=O)N1CCC[C@H]1C(=O)N[C@@H](CCCCN)C(=O)O [YDE-019] (H-[Hyp]GQDFLAGPK-OH) | 13.43 | 40.39 ± 12.57 | 4.84 ± 1.39 | 4.52 ± 1.07 | did not show any significant changes
CC(C)C[C@H](NC(=O)[C@H](Cc1ccc(O)cc1)NC(=O)[C@H](CC(=O)O)NC(=O)[C@H](CCC(N)=O)NC(=O)CNC(=O)[C@@H]1C[C@@H](O)CN1)C(=O)N[C@@H](C)C(=O)NCC(=O)N1CCC[C@H]1C(=O)N[C@@H](CCCCN)C(=O)O [YDE-020] (H-[Hyp]GQDYLAGPK-OH) | 21.54 | 47.84 ± 13.47 | 3.41 ± 1.47 | 4.20 ± 1.35 | did not show any significant changes
CC(C)C[C@H](NC(=O)[C@H](Cc1c[nH]c2ccccc12)NC(=O)[C@H](CC(=O)O)NC(=O)[C@H](CCC(N)=O)NC(=O)CNC(=O)[C@@H]1C[C@@H](O)CN1)C(=O)N[C@@H](C)C(=O)NCC(=O)N1CCC[C@H]1C(=O)N[C@@H](CCCCN)C(=O)O [YDE-021] (H-[Hyp]GQDWLAGPK-OH) | 21.33 | 37.00 ± 10.49 | 4.08 ± 1.33 | 4.90 ± 1.13 | did not show any significant changes
CC(C)C[C@H](NC(=O)[C@H](Cc1c[nH]cn1)NC(=O)[C@H](CC(=O)O)NC(=O)[C@H](CCC(N)=O)NC(=O)CNC(=O)[C@@H]1C[C@@H](O)CN1)C(=O)N[C@@H](C)C(=O)NCC(=O)N1CCC[C@H]1C(=O)N[C@@H](CCCCN)C(=O)O [YDE-022] (H-[Hyp]GQDHLAGPK-OH) | 19.23 | 47.82 ± 10.01 | 3.19 ± 0.67 | 4.10 ± 0.95 | did not show any significant changes
CC(=O)C[C@H](NC(=O)[C@H](CCC(N)=O)NC(=O)CNC(=O)[C@@H]1C[C@@H](O)CN1)C(=O)N(C)CC(=O)N[C@@H](CC(C)C)C(=O)N[C@@H](C)C(=O)NCC(=O)N1CCC[C@H]1C(=O)N[C@@H](CCCCN)C(=O)O [YDE-025] (H-[Hyp]GQ[Nva(4-oxo)][Sar]LAGPK-OH) | 5.17 | 47.10 ± 11.45 | 3.21 ± 0.72 | 4.72 ± 2.19 | did not show any significant changes

Source: patent US11613558B2, “Peptides and pharmaceutical compositions for treating eye diseases” (Yuyu Pharma, Inc., priority 2018, dated 2023)
